Experimental data as given in publication PMC10179505, “Rivastigmine–Benzimidazole Hybrids as Promising Multitarget Metal-Modulating Compounds for Potential Treatment of Neurodegenerative Diseases” (International Journal of Molecular Sciences, 2023).
Like-named read-outs stand apart in the source and are kept apart here.

Tests used:
hMAO-A = target: T1, hMAO-A (Homo sapiens, UniProt P21397); assay: hMAO-A inhibition (kynuramine to 4-hydroxyquinoline, microsomal recombinant enzyme); type: biochemical; details: for hMAO isoform selectivity: hMAO-A vs hMAO-B; for inhibition at 10 µM: read-out: % Inhibition (at 10 µM) hMAO-A
T1 construct: purchased Sigma-Aldrich Quimica S.A., Madrid, Spain; host or cells: insect cells (BTI-TN-5B1-4) infected with recombinant baculovirus
T1 sequence (P21397 1-527): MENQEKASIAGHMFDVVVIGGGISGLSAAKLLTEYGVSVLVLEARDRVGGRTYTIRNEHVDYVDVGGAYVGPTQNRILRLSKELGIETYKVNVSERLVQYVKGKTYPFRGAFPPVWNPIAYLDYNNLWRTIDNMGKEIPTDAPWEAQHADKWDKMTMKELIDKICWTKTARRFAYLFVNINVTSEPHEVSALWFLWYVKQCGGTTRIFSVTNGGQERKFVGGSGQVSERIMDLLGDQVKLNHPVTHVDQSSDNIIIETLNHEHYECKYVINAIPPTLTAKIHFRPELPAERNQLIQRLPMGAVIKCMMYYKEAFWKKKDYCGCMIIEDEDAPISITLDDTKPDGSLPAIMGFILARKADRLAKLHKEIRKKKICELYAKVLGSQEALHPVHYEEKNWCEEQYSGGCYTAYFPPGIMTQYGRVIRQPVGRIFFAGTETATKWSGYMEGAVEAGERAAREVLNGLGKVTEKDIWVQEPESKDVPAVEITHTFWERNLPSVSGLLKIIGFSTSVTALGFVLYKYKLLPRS
Procedure: (§1) The inhibitory activity of the rivastigmine hybrids (RIV–BIM) on hMAO-A and hMAO-B was studied using an experimental protocol described elsewhere with some modifications. The outlined hMAO inhibition was assessed in microsomal MAO isoforms prepared from insect cells (BTI-TN-5B1-4) infected with recombinant baculovirus containing cDNA inserts for hMAO-A or hMAO-B (Sigma-Aldrich Quimica S.A., Madrid, Spain) and by measuring the enzymatic conversion rates of kynuramine into 4-hydroxyquinoline. […] All assays were performed under sodium phosphate-buffered conditions (50 mM, pH = 7.4). […] Then, the reaction was started with the addition of hMAO-A or hMAO-B. Initial velocities were determined spectrophotometrically in a microplate reader (Biotek Synergy HT, Winooski, VT, USA) at 37 °C by measuring the formation of 4-hydroxyquinoline at 316 nm, over a period of at least 30 min (interval of 1 min). Data were analyzed using GraphPad PRISM version 6 for Windows (GraphPad Software®, San Diego, CA, USA). The initial velocities, obtained from the linear phase of product formation, were normalized and plotted against the respective inhibitor concentration. IC50 values were obtained from dose–response curves and were expressed as the mean ± standard deviation. IC50 values were determined from at least three independent experiments, each performed in triplicate.

hMAO-B = target: T2, hMAO-B (Homo sapiens, UniProt P27338); assay: hMAO-B inhibition (kynuramine to 4-hydroxyquinoline, microsomal recombinant enzyme); type: biochemical
T2 construct: purchased Sigma-Aldrich Quimica S.A., Madrid, Spain; host or cells: insect cells (BTI-TN-5B1-4) infected with recombinant baculovirus
T2 sequence (P27338 1-520): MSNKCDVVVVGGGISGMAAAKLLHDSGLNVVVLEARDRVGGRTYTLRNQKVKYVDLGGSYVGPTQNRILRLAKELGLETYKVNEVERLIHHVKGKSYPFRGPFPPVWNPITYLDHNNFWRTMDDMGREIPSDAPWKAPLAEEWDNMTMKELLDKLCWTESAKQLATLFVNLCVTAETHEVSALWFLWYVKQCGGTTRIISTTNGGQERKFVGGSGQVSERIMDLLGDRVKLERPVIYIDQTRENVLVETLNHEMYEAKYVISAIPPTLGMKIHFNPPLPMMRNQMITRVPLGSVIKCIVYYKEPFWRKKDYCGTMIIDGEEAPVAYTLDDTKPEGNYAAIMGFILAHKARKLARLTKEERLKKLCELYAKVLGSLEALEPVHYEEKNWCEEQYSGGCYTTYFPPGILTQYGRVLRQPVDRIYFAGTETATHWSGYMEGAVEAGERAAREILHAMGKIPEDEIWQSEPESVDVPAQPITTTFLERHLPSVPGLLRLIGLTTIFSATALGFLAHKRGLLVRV
Procedure: as §1

SH-SY5Y cells = type: cell-based, human; details: for protection on MPP+-induced toxicity (cell viability, MTT): 1 µM compound, 1 h pre-incubation, then 0.5 mM MPP+ for 24 h
Procedure: SH-SY5Y human neuroblastoma cells were kept in culture under a humidified atmosphere of 5% CO2 at 37 °C in Dulbecco’s Modified Eagle Medium/Nutrient Mixture F-12 (DMEM/F-12) (Gibco, Thermo Fisher Scientific) supplemented with 10% heat-inactivated fetal bovine serum (FBS), 50 U/mL penicillin, and 50 μg/mL streptomycin. Cells were plated at a density of 1 × 10^5 cells/mL and pre-incubated for 1 h with the compounds by adding them to the medium at the following final concentrations: 1 µM for compounds 4a, 4b, and 5b; 2 µM for compounds 4c and 5a; and 3 µM for compound 4d. Then the cells were incubated for 24 h with MPP^+ (1-methyl-4-phenylpyridinium, Sigma-Aldrich) (1 h pre-incubation + 24 h incubation) at the final concentration of 0.5 mM. MPP^+ was freshly prepared in sterile water on the day of the experiment. The compounds were dissolved in DMSO, aliquoted, and stored at −20 °C; their toxicity was previously studied through cell viability assays to select the highest non-toxic concentration of each compound.
Cell viability was measured by the colorimetric MTT (3-(4,5-dimethylthiazol-2-yl)-2,5-diphenyltetrazolium bromide) reduction assay, which follows the principle that viable cells can metabolize MTT into formazan that absorbs light at 570 nm. After the cell treatments with the compounds and MPP^+, the culture medium was removed, 150 µL of MTT (0.5 mg/mL dissolved in sodium medium) was added to each well, and the 48-well plate was incubated at 37 °C for 2 h. The formazan precipitates were then solubilized with 150 µL of 0.04 M HCl/isopropanol. The absorbance was read at 570 nm using a spectrophotometer (Spectramax Plus 384), and cell viability results were normalized to untreated SH-SY5Y cells, with the means ± SEMs derived from six different experiments performed in duplicate (N = 6). Statistical analyses were performed on GraphPad Prism 8 (GraphPad Software, San Diego, CA, USA) using one-way analysis of variance (ANOVA) followed by Tukey’s post hoc test or using Student’s t-test to determine statistical significance.

Aβ42 [1] = details: cited from earlier work
Aβ42 [2] = details: cited from earlier work; remark: listed apart in the source
[3] = Protonation constants by spectrophotometric titration (Psequad fitting); type: physicochemical; details: pH 7.4, CL = 1 × 10^−5 M
Procedure: To formulate the model for the metal chelation mechanism of compounds 4c and 5a, their protonation constants were first determined by spectrophotometric titrations in a 50% (w/w) DMSO/H2O medium by fitting the experimental data with the program Psequad. This working medium was adopted to perform all the equilibrium studies due to certain solubility problems of the compounds. Since the concentration of the compound used in cell studies is low (<7 μM), the final corresponding concentration of DMSO in culture media would be much lower (<1%) and also is not expected to induce modifications of biological tissues.
The two positional isomeric hybrids 4c and 5a were titrated, alone or in the presence of the metal ions, in a 50% w/w DMSO/H2O medium, at T = 25.0 ± 0.1 °C and ionic strength of (I) 0.1 M KCl, by using a 0.1 M KOH (50% w/w DMSO/H2O) titrant solution. The glass and Ag/AgCl reference electrodes were previously conditioned in different DMSO/H2O mixtures of increasing DMSO % compositions, and the response of the glass electrode was evaluated by strong acid–strong base (HCl/KOH) calibrations with the determination of the Nernst parameters by Gran’s method. […] Under these specified experimental conditions, the pKw value (14.95) was determined and subsequently used in the calculations. […]

[4] = Cu(II) complexation by spectrophotometric titration; type: physicochemical
Procedure: (§2) The metal complexation studies were performed by spectrophotometric titration, in the same 50% w/w DMSO/water medium used for both ligands alone, with fitting analysis of the UV-Vis spectra by Psequad. The calculated metal-chelating equilibrium models, included in Table 1, show good chelating capacity towards Cu(II) (pCu~10.3–13.6) and Fe(III) (pFe~16.8–17.4), involving complex species with a 1:1 to 1:2 or 1:1 to 1:3 M/L ratio, respectively. Metal coordination is expected to occur primarily through the phenolic oxygen and the imidazole nitrogen N(3) of the BIM moiety.
(§3) The two positional isomeric hybrids 4c and 5a were titrated, alone or in the presence of the metal ions, in a 50% w/w DMSO/H2O medium, at T = 25.0 ± 0.1 °C and ionic strength of (I) 0.1 M KCl, by using a 0.1 M KOH (50% w/w DMSO/H2O) titrant solution. The glass and Ag/AgCl reference electrodes were previously conditioned in different DMSO/H2O mixtures of increasing DMSO % compositions, and the response of the glass electrode was evaluated by strong acid–strong base (HCl/KOH) calibrations with the determination of the Nernst parameters by Gran’s method. […] The spectrophotometric measurements were carried out in a 250–450 nm (L, Cu/L systems) or 250–650 nm (L, Fe/L systems) wavelength range at pH ca 2.5–8.0. Under these specified experimental conditions, the pKw value (14.95) was determined and subsequently used in the calculations. The stepwise protonation constants of the ligands, Ki = [HiL]/[Hi−1L][H], and the overall metal–complex stability constants, βMmHhLl = [MmHhLl]/[M]^m[H]^h[L]^l, were calculated by fitting the spectrophotometric data with the Psequad program. The metal hydrolysis model was determined under the established experimental conditions (I = 0.1 M KCl, 50% w/w DMSO/H2O, T = 25.0 ± 0.1 °C) and the following values of stability constants were included in the equilibrium models related to the Fe(III)/L and Cu(II)/L systems: log βFeH−1 = −4.07, log βFeH−3 = −11.42; log βCu2H−2 = −9.99. The species distribution curves were obtained with the Hyss program.

[5] = Fe(III) complexation by spectrophotometric titration; type: physicochemical
Procedure: as §2, §3

[6] = absence of copper, 20 µM inhibitor, thioflavin-T fluorescence
[7] = presence of copper (40 µM), 20 µM inhibitor, thioflavin-T fluorescence
[8] = pM = −log[M] at pH 7.4, CL/CM = 10, CM = 10^−6 M

SMILES	IC50 (hMAO-A) [µM]	hMAO isoform selectivity (hMAO-A)	inhibition at 10 µM (hMAO-B) [%]	Aβ42 Self- Aggreg. Inhib. (Aβ42 [1]; [6]) [%]	Aβ42 Cu-ind. Aggreg. Inhib. (Aβ42 [2]; [7]) [%]	inhibition at 10 µM (hMAO-A) [%]	further results
CCN(C)C(=O)Oc1cccc(NC(=O)c2ccc3[nH]c(-c4ccccc4O)nc3c2)c1 [4a]	0.74 ± 0.07	selective for isoform A	28	39.0	41.2		protection on MPP+-induced toxicity (cell viability, MTT) (SH-SY5Y cells): significant protection
CCN(C)C(=O)Oc1cccc(CNC(=O)c2ccc3[nH]c(-c4ccccc4O)nc3c2)c1 [4b]	8.6 ± 0.9	selective for isoform A	43	39.6	48.8		
CCN(C)C(=O)Oc1cccc(CCNC(=O)c2ccc3[nH]c(-c4ccccc4O)nc3c2)c1 [4c]			33	21.2	22.0	30	predominant neutral species HL [3]: 97.4%; logβCumHhLl, global formation constant, species (1–11) ([4]; CuH−1L (1–11), T = 25.0 ± 0.1 °C, I = 0.1 M KCl, 50% w/w DMSO/water): 3.40(5); logβCumHhLl, global formation constant, species (102) ([4]; CuL2 (102), T = 25.0 ± 0.1 °C, I = 0.1 M KCl, 50% w/w DMSO/water): 17.16(8); logβCumHhLl, global formation constant, species (101) ([4]; CuL (101), T = 25.0 ± 0.1 °C, I = 0.1 M KCl, 50% w/w DMSO/water): 9.09(5); Kd ([4]; calculated at pH 7.4, read-out: conditional dissociation constant (K’d) for the copper complex): 0.032 µM; pM (pCu) [4, 8]: 10.3; log βFemHhLl, global formation constant, species (102) ([5]; FeL2 (102), T = 25.0 ± 0.1 °C, I = 0.1 M KCl, 50% w/w DMSO/water): 20.35(7); log βFemHhLl, global formation constant, species (103) ([5]; FeL3 (103), T = 25.0 ± 0.1 °C, I = 0.1 M KCl, 50% w/w DMSO/water): 28.40(6); log βFemHhLl, global formation constant, species (101) ([5]; FeL (101), T = 25.0 ± 0.1 °C, I = 0.1 M KCl, 50% w/w DMSO/water): 11.57(6); pM (pFe) [5, 8]: 16.8
CCN(C)C(=O)Oc1ccc(CCCNC(=O)c2ccc3[nH]c(-c4ccccc4O)nc3c2)cc1 [4d]	11 ± 1	selective for isoform A	43	20.1	21.3		
CCN(C)C(=O)Oc1cccc(CNC(=O)c2cccc3[nH]c(-c4ccccc4O)nc23)c1 [5b]			34	58.7	60.8	22	protection on MPP+-induced toxicity (cell viability, MTT) (SH-SY5Y cells): significant protection
COc1cc(/C=C/C(=O)CC(=O)/C=C/c2ccc(O)c(OC)c2)ccc1O [Curcumin, curcumin, reference compound]							Aβ42 Self- Aggreg. Inhib. (Aβ42 [1]): 65.7%; Aβ42 Cu-ind. Aggreg. Inhib. (Aβ42 [2]): 62.7%
C[n+]1ccc(-c2ccccc2)cc1 [MPP^+, 1-methyl-4-phenylpyridinium, reference compound]							decrease in cell viability compared with untreated cells (SH-SY5Y cells; MPP+ 0.5 mM, 24 h, MTT): approximately 30%
C[C@H](NCc1ccc(OCc2cccc(F)c2)cc1)C(N)=O [Safinamide, safinamide, reference compound]						13	
